Laboratory results from patent publication US20140329863A1 (priority 2011, published 2014).
Converted amounts (≈) assume the structure as drawn. Read-outs that look alike come from different tables or passages of the source.

Experiments:
[1] = system: PrP^Sc in dividing ScN2a-cl3 cells; type: cell-based, mouse; parameters: Dividing ELISA pEC50 (μM) 1st Expt. / Dividing ELISA pEC50 (μM) 2nd Expt. / Dividing ELISA pEC50 (μM) 3rd Expt. / Dividing ELISA pEC50 (μM) Mean: unit not given here
ScN2a-c13 cells = test: cells; type: cell-based; details: Mus musculus; N=3; read-out: EC50 by calcein for cell viability
[2] = system: PrP^Sc in dividing ScN2a-c13 cells; details: read-out: EC50 (ELISA), reduction of PrP^Sc load; dividing ScN2a-c13 cells
Binding in human plasma = details: 1 μM; mean ± SD, n = 3 (warfarin n = 2)
[3] = system: PrP^Sc in nondividing ScN2a-cl3 cells; type: cell-based, mouse; details: read-out: Non-Dividing ELISA EC50 (μM) Mean (n = 3); ScN2a-c13 non-dividing cells; mean n = 3
MDCK-MDR1 cells = test: Permeability in MDCK-MDR1 cells; details: MDR1-MDCK cell monolayers; for Permeability PA→B: apical to basal; for Permeability PB→A: basal to apical
[4] = Hepatic microsomal stability, rat; details: […]
[5] = […]
N2a-cl3 cells = test: cells; details: Mus musculus, N2a-cl3, read-out: Dividing Calcein EC50 (μM) Mean (n = 3)
[6] = system: MDCK-MDR^1 cells (P-glycoprotein); test: Bidirectional MDCK-MDR1 cell permeability; type: in vitro ADME, canine
Experimental: MDCK-MDR^1 cells were grown to confluence for 5-10 days on 1-μm filters in 24-well plates {Hilgers, 1990}. Aliquots of DMSO stocks were diluted into Hank's balanced salt solution (HBSS), pH 7.4, containing […] to give 10-μM solute concentration. The solute containing donor solutions were transferred to either the apical or basolateral chamber of the permeability diffusion apparatus. Receiver solutions consisted of HBSS (pH 7.4) containing 25 mM HEPES+0.05% PS80. Sequential samples of transported solute were taken at 20-min intervals using an automated liquid handling platform. The concentration of transported solute during each sampling interval was determined by HPLC/UV/MS. Permeability coefficients were calculated for each sampling interval. The average and standard deviation from the intervals are reported. Mass balance in the system was ascertained by comparing the sum of total transported solute and remaining donor solute with the starting mass of solute and is expressed as a percentage of donor solute at time zero. […] In the event of mass balance less than 70%, the cell monolayers were extracted with ACN and analyzed for the solute of interest. Determinations were conducted in duplicate.

[7] = Multiple-dose (three-day) pharmacokinetic studies in FVB mice, drug in liquid diet; type: in vivo, mouse; details: three days in liquid diet, higher doses (up to 210 mg/kg/day)
Experimental: Aminothiazole analog (e.g., 4.5 g of 27) was added to 15 mL of pure PEG400, vortexed and sonicated to ensure dissolution, then stored at −4° C. until needed. This highly concentrated PEG400 solution was subsequently diluted to final dosing concentrations, where the volume added was composed of homogenized solid rodent feed, cocoa (taste masking agent), and water. Wild-type FVB mice weigh ˜25 gm and typically drink 20 mL of liquid diet per day, allowing an estimate of daily drug consumption. A single dosing cohort consisted of three mice in a shared cage and liquid diet was provided at the start of the study in sufficient volume to last for the entire three-day trial (˜200 mL). At the end of the three-day dosing period, animals were euthanized by CO2, followed by collection of plasma (cardiac puncture) and removal of whole brain. Heparinized blood was centrifuged to separate plasma and both plasma and brain samples were stored at −80° C. prior to analysis. Plasma samples were prepared for analysis by precipitating proteins and reconstituting the remaining fraction with HPLC mobile phase. Brain samples were typically prepared by four-fold dilution with water after weighing, then homogenized using bead-beater or Polytron™ resulting in a highly concentrated solution that was further diluted with mobile phase as appropriate in preparation for bioanalytical analysis using LC-MS. Analysis was by LC-MS (Shimadzu dual-HPLC pumps, C18 analytical column, with detection using an Applied Biosystems API-4000 triple quadrupole mass spectrometer).
Ten compounds were selected from among the 34 2-AMTs for three-day multiple-dose PK studies at PO doses ranging from 40-210 mg/kg. Selection was based on diversity in potency, chemical structure, and a range of physicochemical properties. We used a liquid diet to facilitate easy drug administration, as well as serve as the daily source of all water and food. This approach was chosen because the mouse bioassay studies that would be used to assess drug effects on survival would be expected to run for 110 to 400 days, or more; gavage dosing for such a long period is not feasible and more stressful to mice. For the multiple-dose PK studies, 4.5 g of the 2-AMT analogs was added to 15 mL of pure PEG400, vortexed and sonicated to ensure dissolution, then stored at −4° C. until needed. This highly concentrated PEG400 solution was subsequently diluted to final dosing concentrations and added to the rodent liquid diet, cocoa (taste-masking agent), and water.
Wild-type FVB mice weigh ˜25 g and typically drink 20 mL of liquid diet per day, allowing an estimate of daily drug consumption. A single dosing cohort consisted of three mice in a shared cage and liquid diet was provided at the start of the study in sufficient volume (˜200 mL) to last for the entire three-day period. At the end of the dosing period, animals were euthanized by CO2, followed by collection of plasma (cardiac puncture) and removal of whole brain. Samples were processed and stored as described above for the 10 mg/kg single-dose studies.
Plasma and brain homogenate samples were extracted using a protein-precipitation method and analyzed by specific LC/MS/MS methods developed for each compound dosed in vivo. The analytical method accuracy and precision were monitored by analyzing quality control (QC) samples that were prepared by the same methods as the plasma or brain homogenate samples. The brain and plasma concentration data were used to calculate the maximal concentration (Cmax), area under the concentration-time curve (AUClast), and absolute bioavailability (% F) by noncompartmental analysis with sparse sampling performed using Phoenix WinNonlin 6.1 software (Pharsight, Mountain View, Calif.).

[8] = not given; remark: listed apart in the source
[9] = pH 1.2, simulated gastric fluid
[10] = ScN2a-cl3 dividing cells, 1st determination
[11] = ScN2a-cl3 dividing cells, 2nd determination
[12] = ScN2a-cl3 dividing cells, 3rd determination
[13] = ScN2a-cl3 dividing cells, mean of three determinations
[14] = read-out: Antiprion activity ScN2a-cl3 EC50, ScN2a-cl3 cells
[15] = read-out: Dividing ELISA EC50 (μM) 1st Expt., ScN2a-cl3 dividing cells, 1st determination
[16] = read-out: Dividing ELISA EC50 (μM) 2nd Expt., ScN2a-cl3 dividing cells, 2nd determination
[17] = read-out: Dividing ELISA EC50 (μM) 3rd Expt., ScN2a-cl3 dividing cells, 3rd determination
[18] = read-out: Dividing ELISA EC50 (μM) Mean, ScN2a-cl3 dividing cells, mean of three determinations

## COc1ccnc(Nc2nc(-c3cc(-c4ccccc4)no3)cs2)c1 [IND112, (4-Methoxy-pyridin-2-yl)-[4-(3-phenyl-isoxazol-5-yl)-thiazol-2-yl]-amine]
[1]; AMT analogs tested for potency
  EC50: 0.251 µM
ScN2a-c13 cells
  EC50: > 10 µM
[2]
  EC50: 251 nM

## COc1ccc(Nc2nc(-c3cc(-c4ccccc4)no3)cs2)nc1 [IND120, (5-Methoxy-pyridin-2-yl)-[4-(3-phenyl-isoxazol-5-yl)-thiazol-2-yl]-amine]
[1]; AMT analogs tested for potency
  EC50: 0.229 µM
ScN2a-c13 cells
  EC50: > 10 µM
[2]
  EC50: 229 nM

## Cc1cccc(Nc2nc(-c3ccc(-c4ccnc(N(C)C)c4)cc3)cs2)n1 [IND-0116095]
physchem; [9]
  solubility: > 150 µM
physchem; pH 7.4, aqueous buffer
  solubility: 1.6 µM (≈ 0.62 µg/mL)
other
  Analiza solubility (μM) pH 1.2: >150 μM

## Cc1cccc(Nc2nc(-c3ccc(-c4ccnc(OC(C)C)c4)cc3)cs2)n1 [IND-0116096]
physchem; [9]
  solubility: > 150 µM
physchem; pH 7.4, aqueous buffer
  solubility: 3.1 µM (≈ 1.25 µg/mL)
other
  Analiza solubility (μM) pH 1.2: >150 μM

## COCCOc1cc(-c2ccc(-c3csc(Nc4cccc(C)n4)n3)cc2)ccn1 [IND-0116099]
physchem; [9]
  solubility: 126 µM (≈ 52.5 µg/mL)
physchem; pH 7.4, aqueous buffer
  solubility: < 0.5 µM
other
  Analiza solubility (μM) pH 7.4: <0.5 μM

## Cc1cccc(Nc2nc(-c3ccc(-c4ccnc(OCC#N)c4)cc3)cs2)n1 [IND-0116138]
physchem; [9]
  solubility: > 150 µM
physchem; pH 7.4, aqueous buffer
  solubility: < 0.4 µM
other
  Analiza solubility (μM) pH 1.2: >150 μM
  Analiza solubility (μM) pH 7.4: <0.4 μM

## CN(C)c1cccc(Nc2nc(-c3ccc(-c4ccccc4)cc3)cs2)n1 [IND-0116142]
physchem; [9]
  solubility: 16.1 µM (≈ 6 µg/mL)
physchem; pH 7.4, aqueous buffer
  solubility: < 0.5 µM
other
  Analiza solubility (μM) pH 7.4: <0.5 μM

## Cc1cccc(Nc2nc(-c3ccc(-c4ccc(OCC#N)nc4)cc3)cs2)n1 [IND-0116165]
physchem; [9]
  solubility: 2.2 µM (≈ 0.879 µg/mL)
physchem; pH 7.4, aqueous buffer
  solubility: < 0.4 µM
other
  Analiza solubility (μM) pH 7.4: <0.4 μM

## CC(=O)CC(c1ccccc1)c1c(O)c2ccccc2oc1=O (centres unmarked) [Warfarin, warfarin, reference compound]
Binding in human plasma
  Unbound (%), Human Plasma: 0.68 ± 0.0023%

## COc1ccc(-c2csc(Nc3ccc(C(F)(F)F)cn3)n2)cc1OC [compound 12, [4-(3,4-dimethoxyphenyl)-thiazol-2-yl]-(5-trifluoromethylpyridin-2-yl)-amine]
[3]
  EC50: > 32 µM
[1]; [10]
  Dividing ELISA pEC50 (μM) 1st Expt.: 5.53
[1]; [11]
  Dividing ELISA pEC50 (μM) 2nd Expt.: 5.69
[1]; [12]
  Dividing ELISA pEC50 (μM) 3rd Expt.: 5.58
[1]; [13]
  Dividing ELISA pEC50 (μM) Mean: 5.60
[1]; [14]
  EC50: 2.53 µM
[1]; [15]
  EC50: 2.93 µM
[1]; [16]
  EC50: 2.05 µM
[1]; [17]
  EC50: 2.62 µM
[1]; [18]
  EC50: 2.53 µM
MDCK-MDR1 cells
  Permeability PA→B: 9.4 10^−6 cm/sec
  Permeability PB→A: 8.7 10^−6 cm/sec
[4]
  Microsome stability T1/2: 150 min
[5]
  metabolic stability (in words): excellent stability
N2a-cl3 cells
  EC50: > 32 µM
[6]
  P-gp substrate status, absorptive vs secretory permeability: greater permeability in the absorptive direction

## COc1ccc(-c2csc(Nc3cc4ccccc4cn3)n2)cc1OC [compound 17, [4-(3,4-dimethoxyphenyl)-thiazol-2-yl]isoquinolin-3-yl-amine]
[3]
  EC50: > 32 µM
[1]; [15]
  EC50: 0.101 µM
[4]
  Microsome stability T1/2: 83 min
[5]
  metabolic stability (in words): excellent stability
N2a-cl3 cells
  EC50: > 32 µM
[6]
  P-gp substrate status, absorptive vs secretory permeability: greater permeability in the absorptive direction

## Cc1ccc(Nc2nc(-c3cc(-c4ccccc4)no3)cs2)nc1 [compound 27, (5-Methylpyridin-2-yl)-[4-(3-phenylisoxazol-5-yl)-thiazol-2-yl]-amine]
[3]
  EC50: > 32 µM
[1]; [10]
  Dividing ELISA pEC50 (μM) 1st Expt.: 5.96
[1]; [11]
  Dividing ELISA pEC50 (μM) 2nd Expt.: 6.13
[1]; [12]
  Dividing ELISA pEC50 (μM) 3rd Expt.: 6.00
[1]; [13]
  Dividing ELISA pEC50 (μM) Mean: 6.03
[1]; [14]
  EC50: 0.94 µM
[1]; [15]
  EC50: 1.09 µM
[1]; [16]
  EC50: 0.747 µM
[1]; [17]
  EC50: 0.994 µM
[1]; [18]
  EC50: 0.945 µM
MDCK-MDR1 cells
  Permeability PA→B: 6.8 10^−6 cm/sec
  Permeability PB→A: 8.3 10^−6 cm/sec
[4]
  Microsome stability T1/2: 151 min
[5]
  metabolic stability (in words): excellent stability
N2a-cl3 cells
  EC50: > 32 µM
[2]
  EC50: 940 nM
[7]
  mean brain concentration in excess of EC50: ≤ 25 fold

## Cc1ccc(Nc2nc(-c3c(-c4ccccc4)noc3C)cs2)nc1 [compound 28, [4-(5-Methyl-3-phenylisoxazol-4-yl)-thiazol-2-yl]-(5-methylpyridin-2-yl)-amine]
[3]
  EC50: > 32 µM
[1]; [10]
  Dividing ELISA pEC50 (μM) 1st Expt.: 4.52
[1]; [11]
  Dividing ELISA pEC50 (μM) 2nd Expt.: 4.82
[1]; [12]
  Dividing ELISA pEC50 (μM) 3rd Expt.: >4.5
[1]; [14]
  EC50: > 26 µM
[1]; [15]
  EC50: 30 µM
[1]; [16]
  EC50: 15.2 µM
[1]; [17]
  EC50: > 32 µM
[1]; [18]
  EC50: > 26 µM
MDCK-MDR1 cells
  Permeability PA→B: 11.2 10^−6 cm/sec
  Permeability PB→A: 8.6 10^−6 cm/sec
[4]
  Microsome stability T1/2: 19 min
N2a-cl3 cells
  EC50: > 32 µM
[6]
  P-gp substrate status, absorptive vs secretory permeability: greater permeability in the absorptive direction
[8]
  melting point: 267 to 269 °C
